Measured values reported in patent US12116343B2, “Inhibitors of APOL1 and methods of using same” (Vertex Pharmaceuticals Incorporated, priority 2020, dated 2024).
pIC50: −log10 of the molar value.

These compounds were tested against T1, G1 APOL1 (Homo sapiens, UniProt O14791, I384M/S342G) (assay: Acute APOL1 Thallium Assay with inducible stable clones of HEK 293 cells). Settings: HEK 293 T-Rex cells expressing G1 APOL1; read-out: Thallium Assay (IC50).
T1 construct: expressed in transfected cells
T1 sequence (O14791 28-398 S342G/I384M): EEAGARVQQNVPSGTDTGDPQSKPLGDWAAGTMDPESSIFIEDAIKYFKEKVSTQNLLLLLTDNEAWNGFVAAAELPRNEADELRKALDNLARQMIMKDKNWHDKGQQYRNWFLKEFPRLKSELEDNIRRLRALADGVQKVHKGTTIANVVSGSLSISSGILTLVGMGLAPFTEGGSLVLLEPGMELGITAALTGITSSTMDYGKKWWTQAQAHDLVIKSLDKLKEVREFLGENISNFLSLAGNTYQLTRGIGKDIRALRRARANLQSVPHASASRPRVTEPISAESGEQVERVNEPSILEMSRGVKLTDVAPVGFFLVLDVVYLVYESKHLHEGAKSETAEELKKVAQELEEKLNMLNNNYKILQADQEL
Assay type: cell-based
Source text: Acute APOL1 Thallium Assay with Inducible Stable Clones of HEK 293 Cells
Apolipoprotein L1 (APOL1) proteins form potassium-permeable cation pores in the plasma membrane. APOL1 risk variants (G1 and G2) induce greater potassium flux than G0 in HEK293 cells. This assay exploits the permeability of thallium (Tl+) through ligand-gated potassium channels. The dye produces a bright fluorescent signal upon binding to Tl+ conducted through potassium channels. The intensity of the Tl+ signal is proportional to the number of potassium channels in the open state. Therefore, it provides a functional indication of the potassium channel activities. During the initial dye-loading step, the Tl+ indicator dye as an acetoxymethyl (AM) ester enters the cells through passive diffusion. Cytoplasm esterases cleave the AM ester and relieve its active thallium-sensitive form. The cells are then stimulated with Tl+. The increase of fluorescence in the assay represents the influx of Tl+ into the cell specifically through the potassium channel (i.e. through APOL1 pores), providing a functional measurement of potassium channel/pore activity. The Thallium assay is conducted with cells expressing G1 APOL1.
APOL1 Cell Line (HEK T-Rex Stable Inducible Cell Line) • HEK T-Rex System • Tetracycline (Tet) inducible mammalian expression system. • Stably express the Tet repressor to regulate transcription. • Expression under the full-length CMV promoter. • APOL1 stable inducible cell line Clone used: G1 DC3.25
Tissue Culture Media • Cell Culture Medium • DMEM+10% FBS+P/S+5 μg/mL blasticidin+1 μg/mL puromycin. • 500 mL DMEM+55 mL FBS+5 mL P/S+280 μL blasticidin S HCl (10 mg/mL)+56 μL puromycin (10 mg/mL). • Cell Assay Medium • DMEM with 2% FBS+pen strep.
Instruments and Equipment • Nuaire cell culture hood, Cat. No. 540-600 • 37° C./5% CO2 incubator link to robotic arm, Liconic: STX110 • Molecular Devices FLIPR^Tetra High throughput cellular screening system, Cat. No. FT0324, Molecular Devices • ThermoFisher MultiDrop 384, Cat. No. 5840300 • Biotek Microfill, Cat. No. ASF1000A-4145 • BioRad TC10 cell counter, Cat. No. 145-0010 Assay Procedures
Cells Scaled Up from Frozen Vials • APOL1 G1 3.25 (HEK293 T-Rex) frozen vials: 5 million cells per vial • Step 1, Day 1: Defrost frozen vial into T-225. • Step 2, Day 5: (when 85% confluent): Split one T-225 at 3×10^6 cells per flask. • Step 3, Day 8: Splits cells to set up for the assay plates as described below.
T-Rex APOL1 HEK cells are split twice per week to keep the confluence state below 85% of the culture flask surface area. Cells can be kept until passage 25. • Cell Culture Medium • DMEM high glucose+10% FBS, +P/S, +5 μg/mL blasticidin, +1 μg/mL puromycin. • 500 mL DMEM, +55 mL FBS, +5 mL P/S, +280 μL blasicidin 10 mg/mL, +56 μL Puromycin 10 mg/mL. • Assay Media • Opti-MEM reduced serum medium from Invitrogen.
Preparation of Cell Assay Plates • Culture medium is removed from the x cm^2 T-flask by aspiration. • The cell monolayer is rinsed with PBS 1× at room temperature. PBS is removed by aspiration. • Cells are trypsinized using Trypsin. • The flasks are incubated at room temperature for 2-3 minutes. • Complete DMEM medium is then added. Cell suspension is then transferred to a 50 mL Falcon polypropylene tube. • Cells are then counted using a Biorad TC10 cell counter and the required amount of cells are centrifuged at 1200 RPM for 5 minutes. Required amount is 1.3×10^6 cells/mL APOL1 T-Rex HEK cells. • The pellet is suspended in the assay medium. • Using the MultiDrop, add 20 μL to each well (corresponds to 26000 cells total per well) of a 384-well black, transparent, flat bottom Poly-D coated plate. • Tetracycline as prepared in the following section is added to the cells before plating to induce APOL1 expression. • Plates are left at room temperature for 20 to 30 minutes before incubation at 37° C. and 5% CO2. […]

O=C1NCCCC1NC(=O)[C@H]1C[C@@H](c2c(-c3ccc(F)cc3)[nH]c3c(F)cc(F)cc32)C1 (stereo partly drawn) [Compound 249] and O=C1NCCC1NC(=O)[C@H]1C[C@@H](c2c(-c3ccc(F)cc3)[nH]c3c(F)cc(F)cc32)C1 (stereo partly drawn) [Compound 268] cannot be ordered by pIC50: less than 6.00 for the first, less than 6.00 for the second.

Compared with NC(=O)CNC(=O)[C@H]1C[C@@H](c2c(-c3ccc(F)cc3)[nH]c3c(F)cc(F)cc32)C1 [Compound 250], NC(=O)CNC(=O)C1CC(c2c(-c3ccc(F)cc3)[nH]c3c(F)cc(C(F)(F)F)cc23)C1 (stereo not drawn) [Compound 280] is higher in pIC50: less than 6.00 for the first, greater than 6.60 for the second. The second is the more potent here.

O=C1CCC(NC(=O)[C@H]2C[C@@H](c3c(-c4ccc(F)cc4)[nH]c4c(F)cc(F)cc43)C2)C(=O)N1 (stereo partly drawn) [Compound 252] and O=C1NC[C@@H](O)[C@@H]1NC(=O)[C@H]1C[C@@H](c2c(-c3ccc(F)cc3)[nH]c3c(F)cc(F)cc32)C1 [Compound 277] cannot be ordered by pIC50: less than 6.00 for the first, less than 6.00 for the second.

First: O=C(NC1(CO)CC1)[C@H]1C[C@@H](c2c(-c3ccc(F)cc3)[nH]c3c(F)cc(F)cc32)C1 [Compound 253]
Second: C[C@@H](CO)NC(=O)[C@H]1C[C@@H](c2c(-c3ccc(F)cc3)[nH]c3c(F)cc(F)cc32)C1 [Compound 271]
The pIC50 of the first is lower: less than 6.00 for the first, 6.00 to 6.60 for the second. The second is the more potent here.

CC(C)C(CO)NC(=O)[C@H]1C[C@@H](c2c(-c3ccc(F)cc3)[nH]c3c(F)cc(F)cc32)C1 (stereo partly drawn) [Compound 254] and CC(O)[C@H](CO)NC(=O)[C@H]1C[C@@H](c2c(-c3ccc(F)cc3)[nH]c3c(F)cc(F)cc32)C1 (stereo partly drawn) [Compound 270] cannot be ordered by pIC50: less than 6.00 for the first, less than 6.00 for the second.

CC(C)CC(NC(=O)[C@H]1C[C@@H](c2c(-c3ccc(F)cc3)[nH]c3c(F)cc(F)cc32)C1)C(N)=O (stereo partly drawn) [Compound 255] and NC(=O)C(CO)NC(=O)[C@H]1C[C@@H](c2c(-c3ccc(F)cc3)[nH]c3c(F)cc(F)cc32)C1 (stereo partly drawn) [Compound 259] cannot be ordered by pIC50: less than 6.00 for the first, less than 6.00 for the second.

First: CC(C)(CO)NC(=O)[C@H]1C[C@@H](c2c(-c3ccc(F)cc3)[nH]c3c(F)cc(F)cc32)C1 [Compound 256]
Second: C[C@H](CO)NC(=O)[C@H]1C[C@@H](c2c(-c3ccc(F)cc3)[nH]c3c(F)cc(F)cc32)C1 [Compound 272]
The pIC50 of the first is higher: 6.00 to 6.60 for the first, less than 6.00 for the second. The first is the more potent here.

First: CC[C@@H](CO)NC(=O)[C@H]1C[C@@H](c2c(-c3ccc(F)cc3)[nH]c3c(F)cc(F)cc32)C1 [Compound 257]
Second: O=C(N[C@@H](CO)C(F)F)[C@H]1C[C@@H](c2c(-c3ccc(F)cc3)[nH]c3c(F)cc(F)cc32)C1 [Compound 276]
The pIC50 of the first is lower: less than 6.00 for the first, 6.00 to 6.60 for the second.

First: C[C@@H](O)CNC(=O)[C@H]1C[C@@H](c2c(-c3ccc(F)cc3)[nH]c3c(F)cc(F)cc32)C1 [Compound 258]
Second: O=C(NCC(F)(F)F)[C@H]1C[C@@H](c2c(-c3ccc(F)cc3)[nH]c3c(F)cc(F)cc32)C1 [Compound 260]
The pIC50 of the first is lower: less than 6.00 for the first, 6.00 to 6.60 for the second.

First: Cn1cnc(CNC(=O)[C@H]2C[C@@H](c3c(-c4ccc(F)cc4)[nH]c4c(F)cc(F)cc43)C2)c1 [Compound 261]
Second: Cn1cnc(CNC(=O)C2(F)CC(c3c(-c4ccc(F)cc4)[nH]c4c(F)cc(F)cc34)C2)c1 (stereo not drawn) [Compound 286]
The pIC50 of the first is lower: less than 6.00 for the first, greater than 6.60 for the second. The second is the more potent here.

First: O=C(NCCn1cccc1)[C@H]1C[C@@H](c2c(-c3ccc(F)cc3)[nH]c3c(F)cc(F)cc32)C1 [Compound 262]
Second: Cc1ccn(CCNC(=O)[C@H]2C[C@@H](c3c(-c4ccc(F)cc4)[nH]c4c(F)cc(F)cc43)C2)n1 [Compound 263]
The pIC50 of the first is lower: less than 6.00 for the first, 6.00 to 6.60 for the second.

O=C(NCCn1cncn1)[C@H]1C[C@@H](c2c(-c3ccc(F)cc3)[nH]c3c(F)cc(F)cc32)C1 [Compound 264] and Cn1nccc1CNC(=O)[C@H]1C[C@@H](c2c(-c3ccc(F)cc3)[nH]c3c(F)cc(F)cc32)C1 [Compound 265] cannot be ordered by pIC50: less than 6.00 for the first, less than 6.00 for the second.

O=C(NCC1CC(F)(F)C1)[C@H]1C[C@@H](c2c(-c3ccc(F)cc3)[nH]c3c(F)cc(F)cc32)C1 [Compound 266] and O=C(N[C@H]1C[C@H](O)C1)[C@H]1C[C@@H](c2c(-c3ccc(F)cc3)[nH]c3c(F)cc(F)cc32)C1 [Compound 267] cannot be ordered by pIC50: less than 6.00 for the first, less than 6.00 for the second.

O=C(N[C@@H]1CCOC1)[C@H]1C[C@@H](c2c(-c3ccc(F)cc3)[nH]c3c(F)cc(F)cc32)C1 [Compound 269] and O=C([C@H]1C[C@@H](c2c(-c3ccc(F)cc3)[nH]c3c(F)cc(F)cc32)C1)N1C[C@@H](O)[C@H](O)C1 [Compound 274] cannot be ordered by pIC50: less than 6.00 for the first, less than 6.00 for the second.

O=C(NC(CO)(CO)CO)[C@H]1C[C@@H](c2c(-c3ccc(F)cc3)[nH]c3c(F)cc(F)cc32)C1 [Compound 273] and O=C(NCCO)C1CC(c2c(-c3ccc(F)cc3)[nH]c3c(F)cc(C(F)(F)F)cc23)C1 (stereo not drawn) [Compound 279] fall in the same range of pIC50: 6.00 to 6.60 for the first, 6.00 to 6.60 for the second.

Going from O=C1CN(C(=O)[C@H]2C[C@@H](c3c(-c4ccc(F)cc4)[nH]c4c(F)cc(F)cc43)C2)CCN1 [Compound 275] to O=C(NC1(CO)CC1)C1(F)CC(c2c(-c3ccc(F)cc3)[nH]c3c(F)cc(F)cc23)C1 (stereo not drawn) [Compound 285], the pIC50 rises from less than 6.00 to greater than 6.60.

Same assay, conditions: Table 24, Compounds 287 to 465; read-out: Thallium Assay (IC50)

NC(=O)CCNC1CC(c2c(-c3ccc(F)cc3)[nH]c3c(F)cc(F)cc23)C1 (stereo not drawn) [Compound 287, 3-[[3-[5,7-difluoro-2-(4-fluorophenyl)-1H-indol-3-yl]cyclobutyl]amino]propanamide] and NC(=O)CNC1CC(c2c(-c3ccc(F)cc3)[nH]c3c(F)cc(F)cc23)C1 (stereo not drawn) [Compound 288, 2-[[3-[5,7-difluoro-2-(4-fluorophenyl)-1H-indol-3-yl]cyclobutyl]amino]acetamide] cannot be ordered by pIC50: less than 6.00 for the first, less than 6.00 for the second.

O=C(CN[C@H]1C[C@H](c2c(-c3ccc(F)cc3)[nH]c3c(F)cc(F)cc32)C1)NCO [Compound 289] and CNC(=O)CN[C@H]1C[C@H](c2c(-c3ccc(F)cc3)[nH]c3c(F)cc(F)cc32)C1 [Compound 291] fall in the same range of pIC50: 6.00 to 6.60 for the first, 6.00 to 6.60 for the second.

CC(C)NC(=O)CN[C@H]1C[C@H](c2c(-c3ccc(F)cc3)[nH]c3c(F)cc(F)cc32)C1 [Compound 290] and NC(=O)CN[C@H]1C[C@H](c2c(-c3ccc(F)cc3)[nH]c3c(F)cc(F)cc32)C1 [Compound 294] cannot be ordered by pIC50: less than 6.00 for the first, less than 6.00 for the second.

CON(C)C(=O)CN[C@H]1C[C@H](c2c(-c3ccc(F)cc3)[nH]c3c(F)cc(F)cc32)C1 [Compound 292] and O=C(CN[C@H]1C[C@H](c2c(-c3ccc(F)cc3)[nH]c3c(F)cc(F)cc32)C1)NC1CC1 [Compound 293] cannot be ordered by pIC50: less than 6.00 for the first, less than 6.00 for the second.

First: C[C@@H](CO)NC(=O)N[C@H]1C[C@H](c2c(-c3ccc(F)cc3)[nH]c3c(F)cc(F)cc32)C1 [Compound 295, 1-((1r,3S)-3-(5,7-difluoro-2-(4-fluorophenyl)-1H-indol-3-yl)cyclobutyl)-3-((S)-1-hydroxypropan-2-yl)urea]
Second: C[C@@H](O)CNC(=O)N[C@H]1C[C@H](c2c(-c3ccc(F)cc3)[nH]c3c(F)cc(F)cc32)C1 [Compound 296]
The pIC50 of the first is higher: 6.00 to 6.60 for the first, less than 6.00 for the second. The first is the more potent here.
